In PubChem BioAssay AID1845198 (Molecular Pharmacology Branch, DTP, NCI, 2023):

System: 425362-245-T-J1 tumor spheroids, viability % test/control
Assay: Anticancer human tumor 425362-245-T-J1 patient-derived melanoma cell line growth inhibition
Settings: spheroids with HUVEC and MSC; for IC50: curve of first compound; for viability, T/C: stronger effect = lower value
In short: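 Complex tumor spheroids combined malignant cells with endothelial cells and mesenchymal stem cells. DNA-damaging drugs and DNA repair inhibitors were tested alone and in combination, at half-log dilutions down from clinical Cmax (top 10 microM if Cmax unknown), 0.25% DMSO final.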

[1] = second compound 1 µM, first compound 0.00949 µM
[2] = second compound 1 µM, first compound 0.03 µM
[3] = second compound 1 µM, first compound 0.0949 µM
[4] = second compound 1 µM, first compound 0.3 µM
[5] = second compound 1 µM, first compound 0.949 µM
[6] = second compound 1 µM, first compound 3 µM
[7] = second compound 3.16 µM, first compound 0.00949 µM
[8] = second compound 3.16 µM, first compound 0.03 µM
[9] = second compound 3.16 µM, first compound 0.0949 µM
[10] = second compound 3.16 µM, first compound 0.3 µM
[11] = second compound 3.16 µM, first compound 0.949 µM
[12] = second compound 3.16 µM, first compound 3 µM
[13] = second compound 10 µM, first compound 0.00949 µM
[14] = second compound 10 µM, first compound 0.03 µM
[15] = second compound 10 µM, first compound 0.0949 µM
[16] = second compound 10 µM, first compound 0.3 µM
[17] = second compound 10 µM, first compound 0.949 µM
[18] = second compound 10 µM, first compound 3 µM
[19] = second compound 31.6 µM, first compound 0.00949 µM
[20] = second compound 31.6 µM, first compound 0.03 µM
[21] = second compound 31.6 µM, first compound 0.0949 µM
[22] = second compound 31.6 µM, first compound 0.3 µM
[23] = second compound 31.6 µM, first compound 0.949 µM
[24] = second compound 31.6 µM, first compound 3 µM
[25] = second compound 100 µM, first compound 0.00949 µM
[26] = second compound 100 µM, first compound 0.03 µM
[27] = second compound 100 µM, first compound 0.0949 µM
[28] = second compound 100 µM, first compound 0.3 µM
[29] = second compound 100 µM, first compound 0.949 µM
[30] = second compound 100 µM, first compound 3 µM
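Further: spheroids exposed to agents for 7 days.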

CNCc1ccc(-c2cc(-c3nc(-c4ccc(S(=O)(=O)C(C)C)cc4)cnc3N)on2)cc1 + Cn1nnc2c(C(N)=O)ncn2c1=O
IC50 (second compound 1 µM): 82.2 nM
IC50 (second compound 3.16 µM): 142 nM
IC50 (second compound 10 µM): 120 nM
IC50 (second compound 31.6 µM): 109 nM
IC50 (second compound 100 µM): 63.7 nM
viability, T/C [1]: 103%
viability, T/C [2]: 89.2%
viability, T/C [3]: 45.2%
viability, T/C [4]: 6.29%
viability, T/C [5]: 3.41%
viability, T/C [6]: 0.13%
viability, T/C [7]: 99.2%
viability, T/C [8]: 93.1%
viability, T/C [9]: 72.2%
viability, T/C [10]: 9.15%
viability, T/C [11]: 3.94%
viability, T/C [12]: 0.13%
viability, T/C [13]: 111%
viability, T/C [14]: 101%
viability, T/C [15]: 61%
viability, T/C [16]: 9.28%
viability, T/C [17]: 2.96%
viability, T/C [18]: 0.12%
viability, T/C [19]: 95.4%
viability, T/C [20]: 105%
viability, T/C [21]: 56.2%
viability, T/C [22]: 7.24%
viability, T/C [23]: 2.97%
viability, T/C [24]: 0.11%
viability, T/C [25]: 92.7%
viability, T/C [26]: 81.9%
viability, T/C [27]: 33.1%
viability, T/C [28]: 4.28%
viability, T/C [29]: 4.13%
viability, T/C [30]: 0.16%

Cc1sc2c(c1C)C(c1ccc(Cl)cc1)=NC(CC(=O)Nc1ccc(O)cc1)c1nnc(C)n1-2 (stereo not given) + Cn1nnc2c(C(N)=O)ncn2c1=O
IC50 (second compound 1 µM): 82.7 nM
IC50 (second compound 3.16 µM): 86.4 nM
IC50 (second compound 10 µM): 108 nM
IC50 (second compound 31.6 µM): 108 nM
IC50 (second compound 100 µM): 85.7 nM
viability, T/C [1]: 85.8%
viability, T/C [2]: 86.8%
viability, T/C [3]: 44.5%
viability, T/C [4]: 11.4%
viability, T/C [5]: 4.19%
viability, T/C [6]: 4.22%
viability, T/C [7]: 110%
viability, T/C [8]: 86.2%
viability, T/C [9]: 47.6%
viability, T/C [10]: 15.7%
viability, T/C [11]: 3.45%
viability, T/C [12]: 2.88%
viability, T/C [13]: 106%
viability, T/C [14]: 90%
viability, T/C [15]: 57.5%
viability, T/C [16]: 8.87%
viability, T/C [17]: 3.57%
viability, T/C [18]: 2.37%
viability, T/C [19]: 103%
viability, T/C [20]: 92%
viability, T/C [21]: 54.1%
viability, T/C [22]: 16.9%
viability, T/C [23]: 4%
viability, T/C [24]: 2.29%
viability, T/C [25]: 84.8%
viability, T/C [26]: 90.5%
viability, T/C [27]: 45.6%
viability, T/C [28]: 10.6%
viability, T/C [29]: 3.44%
viability, T/C [30]: 1.57%

Cn1ncnc1[C@H]1c2n[nH]c(=O)c3cc(F)cc(c23)N[C@@H]1c1ccc(F)cc1 + Cn1nnc2c(C(N)=O)ncn2c1=O
IC50 (second compound 1 µM): 24.5 nM
IC50 (second compound 3.16 µM): 13.5 nM
IC50 (second compound 10 µM): 12.6 nM
IC50 (second compound 31.6 µM): < 9.49 nM
IC50 (second compound 100 µM): < 9.49 nM
viability, T/C [1]: 59.9%
viability, T/C [2]: 48.6%
viability, T/C [3]: 27%
viability, T/C [4]: 12.1%
viability, T/C [5]: 9.08%
viability, T/C [6]: 2.19%
viability, T/C [7]: 54.8%
viability, T/C [8]: 40.1%
viability, T/C [9]: 19.1%
viability, T/C [10]: 14.3%
viability, T/C [11]: 7.67%
viability, T/C [12]: 2.76%
viability, T/C [13]: 57.8%
viability, T/C [14]: 26.8%
viability, T/C [15]: 15.8%
viability, T/C [16]: 13.2%
viability, T/C [17]: 7%
viability, T/C [18]: 3.32%
viability, T/C [19]: 27.6%
viability, T/C [20]: 12%
viability, T/C [21]: 9.07%
viability, T/C [22]: 7.7%
viability, T/C [23]: 5.14%
viability, T/C [24]: 2.14%
viability, T/C [25]: 7.96%
viability, T/C [26]: 7.44%
viability, T/C [27]: 5.25%
viability, T/C [28]: 4.75%
viability, T/C [29]: 4.31%
viability, T/C [30]: 2.46%

O=C(c1cc(Cc2n[nH]c(=O)c3ccccc23)ccc1F)N1CCN(C(=O)C2CC2)CC1 + Cn1nnc2c(C(N)=O)ncn2c1=O
IC50 (second compound 1 µM): 3100 nM
IC50 (second compound 3.16 µM): 3280 nM
IC50 (second compound 10 µM): 2520 nM
IC50 (second compound 31.6 µM): 2040 nM
IC50 (second compound 100 µM): 233 nM
viability, T/C [3]: 88.6%
viability, T/C [4]: 86.2%
viability, T/C [5]: 71.6%
viability, T/C [6]: 55.6%
viability, T/C (second compound 1 µM, first compound 9.49 µM): 12%
viability, T/C (second compound 1 µM, first compound 30 µM): 6.69%
viability, T/C [9]: 97.8%
viability, T/C [10]: 87.7%
viability, T/C [11]: 83.5%
viability, T/C [12]: 54.6%
viability, T/C (second compound 3.16 µM, first compound 9.49 µM): 12.8%
viability, T/C (second compound 3.16 µM, first compound 30 µM): 7.75%
viability, T/C [15]: 101%
viability, T/C [16]: 85.2%
viability, T/C [17]: 80.2%
viability, T/C [18]: 45.8%
viability, T/C (second compound 10 µM, first compound 9.49 µM): 13.1%
viability, T/C (second compound 10 µM, first compound 30 µM): 6.66%
viability, T/C [21]: 96.5%
viability, T/C [22]: 83.8%
viability, T/C [23]: 69.7%
viability, T/C [24]: 44.4%
viability, T/C (second compound 31.6 µM, first compound 9.49 µM): 6.18%
viability, T/C (second compound 31.6 µM, first compound 30 µM): 6.01%
viability, T/C [27]: 68.1%
viability, T/C [28]: 43.8%
viability, T/C [29]: 26.7%
viability, T/C [30]: 10%
viability, T/C (second compound 100 µM, first compound 9.49 µM): 4.29%
viability, T/C (second compound 100 µM, first compound 30 µM): 3.96%
